Calls of active or inactive are those of the source.
How the values were obtained:
[1] = biological target: T1, Beta-2 adrenergic receptor (Homo sapiens, UniProt P07550); experiment: ADRB2 activation measured by internalization – cell-based, FAP fluorogen, flow cytometry, cherry pick 1, dose response (AID 588763); format: functional
[2] = biological target: T1, Beta-2 adrenergic receptor; experiment: Dose response for HTS for Beta-2AR agonists via FAP method from Powderset3.; format: functional
Beta-lactamase [3] = biological target: Beta-lactamase (Pseudomonas aeruginosa, UniProt Q79MP6);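 note: biochemical dose-response test of metallo-beta-lactamase enzyme inhibition, read out by epi-absorbance; purified recombinant IMP-1 metallo-beta-lactamase with nitrocefin as substrate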
Chain of Beta-lactamase (Pseudomonas aeruginosa, UniProt Q79MP6) (Q79MP6 whole entry): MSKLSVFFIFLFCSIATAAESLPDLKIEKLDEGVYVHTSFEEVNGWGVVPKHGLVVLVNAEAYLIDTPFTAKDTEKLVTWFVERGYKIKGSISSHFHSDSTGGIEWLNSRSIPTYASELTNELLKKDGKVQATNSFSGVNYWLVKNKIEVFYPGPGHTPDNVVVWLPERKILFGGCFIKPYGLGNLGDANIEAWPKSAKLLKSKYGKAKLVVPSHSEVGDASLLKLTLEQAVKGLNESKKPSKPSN

Beta-lactamase [4] = biological target: Beta-lactamase (Salmonella choleraesuis (strain SC-B67), UniProt Q5J463)
Chain of Beta-lactamase (Salmonella choleraesuis (strain SC-B67), UniProt Q5J463) (Q5J463 whole entry): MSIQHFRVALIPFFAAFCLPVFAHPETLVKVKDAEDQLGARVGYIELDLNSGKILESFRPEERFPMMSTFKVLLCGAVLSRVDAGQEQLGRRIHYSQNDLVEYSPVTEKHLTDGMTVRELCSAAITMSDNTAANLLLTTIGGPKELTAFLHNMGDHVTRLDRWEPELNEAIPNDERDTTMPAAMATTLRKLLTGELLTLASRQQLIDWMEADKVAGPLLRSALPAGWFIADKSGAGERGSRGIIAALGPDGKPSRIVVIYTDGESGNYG

[5] = biological target: T2, Sentrin-specific protease 8 (Homo sapiens, UniProt Q96LD8); format: functional
T2 sequence (Q96LD8 whole entry): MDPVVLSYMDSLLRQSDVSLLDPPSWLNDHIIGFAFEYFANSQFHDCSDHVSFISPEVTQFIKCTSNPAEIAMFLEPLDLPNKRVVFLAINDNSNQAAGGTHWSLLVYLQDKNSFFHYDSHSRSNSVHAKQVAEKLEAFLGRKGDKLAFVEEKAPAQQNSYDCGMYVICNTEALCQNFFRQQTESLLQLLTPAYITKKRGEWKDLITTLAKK

[6] = biological target: T2, Sentrin-specific protease 8; format: functional; remark: listed apart in the source
[7] = viability loss in HEK293T cells – cell-based, cherry-picks, cytotoxicity control for HIV Vif inhibitor project, dose response (AID 652208); format: functional
[8] = NIH-3T3 fibroblast cytotoxicity, dose response, cytotoxicity control, cell-based, fluorescence, Alamar Blue, secondary assay (AID 2327); format: functional;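 note: NIH-3T3 mouse fibroblasts cultured with fluconazole at 8 µg/mL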
[9] = fluconazole-exposed Candida albicans growth modulators – fluorescence, retest, confirmation (AID 2467); format: functional, cell-based
Large T antigen = Large T antigen (Simian virus 40, UniProt P03070); format: functional, Betapolyomavirus macacae;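 note: Confirmatory-stage PubChem screen for compounds that inhibit SV40 T antigen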
Chain of Large T antigen (P03070 whole entry): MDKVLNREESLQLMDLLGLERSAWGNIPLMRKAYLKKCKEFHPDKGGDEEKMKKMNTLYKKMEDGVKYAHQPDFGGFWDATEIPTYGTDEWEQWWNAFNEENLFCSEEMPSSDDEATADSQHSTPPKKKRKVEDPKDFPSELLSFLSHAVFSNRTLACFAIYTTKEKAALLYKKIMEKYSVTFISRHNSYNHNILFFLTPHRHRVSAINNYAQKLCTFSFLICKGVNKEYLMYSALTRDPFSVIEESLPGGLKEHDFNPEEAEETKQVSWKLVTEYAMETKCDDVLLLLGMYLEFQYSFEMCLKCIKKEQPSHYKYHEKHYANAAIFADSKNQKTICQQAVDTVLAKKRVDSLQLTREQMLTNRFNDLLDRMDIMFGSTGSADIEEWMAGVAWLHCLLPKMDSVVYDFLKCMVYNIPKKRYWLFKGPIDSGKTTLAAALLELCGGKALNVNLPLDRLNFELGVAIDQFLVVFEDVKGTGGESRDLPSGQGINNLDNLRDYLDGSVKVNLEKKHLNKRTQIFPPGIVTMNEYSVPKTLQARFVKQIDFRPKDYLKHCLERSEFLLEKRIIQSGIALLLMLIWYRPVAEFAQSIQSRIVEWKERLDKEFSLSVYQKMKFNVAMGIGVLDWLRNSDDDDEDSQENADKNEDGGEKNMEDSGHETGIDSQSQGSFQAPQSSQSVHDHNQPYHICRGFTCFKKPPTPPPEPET

Albumin = Albumin (Bos taurus, UniProt P02769); experiment: Counterscreen for inhibitors of T-cell receptor (TCR)-CD3 interaction: Fluorescence-based biochemical high throughput dose response assay to identify inhibitors of T-cell receptor (TCR)-CD3 interaction using a TAMRA-labeled BSA probe.; format: functional
Chain of Albumin (P02769 whole entry): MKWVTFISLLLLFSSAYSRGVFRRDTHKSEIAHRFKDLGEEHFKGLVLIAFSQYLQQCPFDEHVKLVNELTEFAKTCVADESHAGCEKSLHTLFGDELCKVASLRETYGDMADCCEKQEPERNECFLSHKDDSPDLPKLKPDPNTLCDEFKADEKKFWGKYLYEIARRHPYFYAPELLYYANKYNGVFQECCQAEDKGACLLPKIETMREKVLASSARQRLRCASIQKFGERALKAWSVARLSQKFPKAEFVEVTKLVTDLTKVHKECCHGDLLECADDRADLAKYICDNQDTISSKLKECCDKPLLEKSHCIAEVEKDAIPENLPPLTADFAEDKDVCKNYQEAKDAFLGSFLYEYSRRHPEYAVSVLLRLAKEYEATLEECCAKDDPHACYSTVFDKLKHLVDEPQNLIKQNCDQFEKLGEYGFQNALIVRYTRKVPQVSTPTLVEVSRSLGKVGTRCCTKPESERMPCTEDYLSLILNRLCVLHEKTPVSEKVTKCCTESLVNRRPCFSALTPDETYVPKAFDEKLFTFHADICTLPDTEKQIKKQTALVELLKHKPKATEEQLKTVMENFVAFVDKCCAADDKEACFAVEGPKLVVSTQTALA

Caspase-6 = biological target: T3, Caspase-6 (Homo sapiens, UniProt P55212); experiment: inhibition of CASP6 peptide cleavage – biochemical, VEID-R110 fluorescence, cherry-pick, dose response (AID 720632)
T3 sequence (P55212 whole entry): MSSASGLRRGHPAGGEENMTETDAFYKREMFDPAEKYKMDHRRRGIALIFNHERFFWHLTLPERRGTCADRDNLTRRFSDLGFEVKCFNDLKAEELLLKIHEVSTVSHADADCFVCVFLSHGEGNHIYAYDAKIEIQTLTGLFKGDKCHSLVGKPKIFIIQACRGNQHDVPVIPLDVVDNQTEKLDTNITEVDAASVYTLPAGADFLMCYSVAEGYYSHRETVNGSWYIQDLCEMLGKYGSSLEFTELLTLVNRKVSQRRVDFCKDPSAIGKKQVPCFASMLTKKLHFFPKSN

[10] = biological target: T4, Apoptotic protease-activating factor 1 (Homo sapiens, UniProt O14727); experiment: SAR analysis of small molecule Activators of Apaf-1 in a Fluorescent assay.; format: functional; conditions: read-out: EC50_Mean;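 note: caspase-3 cleavage of fluorogenic Rh110 DEVD substrate downstream of apoptosome activation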
T4 sequence (O14727 whole entry): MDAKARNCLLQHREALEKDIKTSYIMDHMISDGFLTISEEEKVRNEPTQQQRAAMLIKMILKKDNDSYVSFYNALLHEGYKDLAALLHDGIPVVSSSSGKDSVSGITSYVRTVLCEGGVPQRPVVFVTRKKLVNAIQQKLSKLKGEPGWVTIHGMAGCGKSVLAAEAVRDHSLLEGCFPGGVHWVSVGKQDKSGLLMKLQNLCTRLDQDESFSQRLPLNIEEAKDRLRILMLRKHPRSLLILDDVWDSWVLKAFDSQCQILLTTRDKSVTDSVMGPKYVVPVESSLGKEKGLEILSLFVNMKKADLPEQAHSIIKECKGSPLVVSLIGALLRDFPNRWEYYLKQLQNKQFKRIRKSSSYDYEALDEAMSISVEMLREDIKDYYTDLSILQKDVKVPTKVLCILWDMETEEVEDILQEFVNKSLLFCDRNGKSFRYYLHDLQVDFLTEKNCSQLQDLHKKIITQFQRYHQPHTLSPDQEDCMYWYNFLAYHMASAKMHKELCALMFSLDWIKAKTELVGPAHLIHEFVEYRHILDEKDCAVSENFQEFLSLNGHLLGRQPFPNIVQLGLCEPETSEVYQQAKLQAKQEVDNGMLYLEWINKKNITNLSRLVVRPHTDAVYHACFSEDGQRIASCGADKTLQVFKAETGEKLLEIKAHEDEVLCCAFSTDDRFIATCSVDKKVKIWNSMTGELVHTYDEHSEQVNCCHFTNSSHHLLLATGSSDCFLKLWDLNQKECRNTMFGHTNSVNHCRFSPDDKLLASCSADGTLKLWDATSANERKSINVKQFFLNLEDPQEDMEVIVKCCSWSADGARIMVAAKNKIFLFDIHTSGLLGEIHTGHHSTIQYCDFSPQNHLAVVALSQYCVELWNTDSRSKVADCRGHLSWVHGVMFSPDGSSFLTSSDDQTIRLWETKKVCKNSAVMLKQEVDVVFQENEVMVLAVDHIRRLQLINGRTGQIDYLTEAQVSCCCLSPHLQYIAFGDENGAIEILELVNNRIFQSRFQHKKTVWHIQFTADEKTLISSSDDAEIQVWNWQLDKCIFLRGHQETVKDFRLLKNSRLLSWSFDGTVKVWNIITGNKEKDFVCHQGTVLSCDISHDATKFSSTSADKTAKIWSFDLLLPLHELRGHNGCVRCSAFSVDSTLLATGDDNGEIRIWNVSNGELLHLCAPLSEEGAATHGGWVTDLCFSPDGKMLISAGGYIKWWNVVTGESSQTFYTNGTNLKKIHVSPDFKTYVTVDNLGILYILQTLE

[11] = biological target: Adenosylmethionine-8-amino-7-oxononanoate aminotransferase (Mycobacterium tuberculosis, UniProt P9WQ81); experiment: Mycobacterium tuberculosis BioA enzyme inhibitor Measured in Biochemical System Using Plate Reader - 2163-02_Inhibitor_Dose_CherryPick_Activity.; format: functional, Mycobacterium tuberculosis UT205
Chain of Adenosylmethionine-8-amino-7-oxononanoate aminotransferase (P9WQ81 whole entry, the tested form may be a part): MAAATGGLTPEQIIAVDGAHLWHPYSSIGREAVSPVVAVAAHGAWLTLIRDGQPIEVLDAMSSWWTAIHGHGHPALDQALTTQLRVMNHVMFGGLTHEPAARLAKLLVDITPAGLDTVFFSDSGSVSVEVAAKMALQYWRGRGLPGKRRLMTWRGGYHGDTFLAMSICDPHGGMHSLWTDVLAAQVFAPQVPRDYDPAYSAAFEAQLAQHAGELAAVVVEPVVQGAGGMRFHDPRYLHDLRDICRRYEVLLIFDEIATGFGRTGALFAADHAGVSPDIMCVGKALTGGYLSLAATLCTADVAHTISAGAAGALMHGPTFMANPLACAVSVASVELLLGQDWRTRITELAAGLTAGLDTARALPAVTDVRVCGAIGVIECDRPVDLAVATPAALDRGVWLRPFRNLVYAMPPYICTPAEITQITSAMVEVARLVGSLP

[12] = blockers of HIV-1 envelope-mediated cell-cell fusion – cherry-pick, dose response (AID 652057); format: functional, cell-based
[13] = viability loss in CEM21 cells – cell-based, CellTiter-Glo luminescence, cherry-picked, cytotoxicity control for viral fusion inhibitor project, dose response (AID 652042); format: functional;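 note: potency for signal decrease meaning cytotoxicity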
[14] = blockers of HIV-1 ZM109 envelope-driven cell-cell fusion – HeLa effector, CEM target cells, luciferase, cherry-pick, dose response (AID 652058); format: functional, cell-based;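 note: luciferase signal from HIV-1 Env mediated cell-cell fusion of effector and target cells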
[15] = off-target signal loss in HeLa-CEM21 co-culture – HeLa F-luc CTL cells, cherry-picked, counter-screen for HIV-1 Env fusion inhibitor project, dose response (AID 652040); format: functional, cell-based;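 note: potency for signal decrease marking cytotoxic or nonspecific inhibition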
[16] = HIV-1 AD8 envelope cell-cell fusion blockers – cherry-pick, dose response (AID 652062); format: functional, cell-based;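 note: luciferase signal from cell-cell fusion driven by HIV-1 clade B AD8 Env; potency is for inhibitors of fusion seen as a drop in luminescence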
[17] = inhibitors of EBV LMP1 NF-kappaB signaling – cell-based, luciferase reporter, luminescence, dry powder, set 2, dose response (AID 624376); format: functional
Paired box protein Pax-8 = Paired box protein Pax-8 (Homo sapiens, UniProt Q06710); experiment: PAX8 transcriptional activity inhibition in RMG-I – RMG-I cells, luciferase, cherry-pick, dose response (AID 687027); format: functional, cell-based;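 note: luciferase reporter driven by Pax8 target thyroperoxidase promoter measured by SteadyGlo luminescence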
Chain of Paired box protein Pax-8 (Q06710 whole entry): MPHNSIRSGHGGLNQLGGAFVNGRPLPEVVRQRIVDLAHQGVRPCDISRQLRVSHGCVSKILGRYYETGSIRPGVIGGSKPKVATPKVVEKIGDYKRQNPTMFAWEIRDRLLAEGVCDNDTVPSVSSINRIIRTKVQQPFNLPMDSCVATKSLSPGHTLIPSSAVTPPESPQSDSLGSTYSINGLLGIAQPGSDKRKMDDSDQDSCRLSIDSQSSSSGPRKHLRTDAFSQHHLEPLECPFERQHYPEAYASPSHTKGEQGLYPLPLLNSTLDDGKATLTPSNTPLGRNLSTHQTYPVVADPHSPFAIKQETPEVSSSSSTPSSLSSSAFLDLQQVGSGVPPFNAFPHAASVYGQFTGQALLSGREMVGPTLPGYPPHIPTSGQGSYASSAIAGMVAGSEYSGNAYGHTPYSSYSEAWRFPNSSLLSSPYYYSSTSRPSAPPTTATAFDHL

[18] = CMV-driven luciferase expression suppression in HEK293 – cell-based, luminescence, dry powder, counter-screen for Pax8 inhibitor project, dose response (AID 743020); format: functional
[19] = Counterscreen for […] of the human trace amine associated receptor 1 (TAAR1): Fluorescence-based cell-based high throughput dose response assay to identify nonselective Ga16 agonists.; format: functional
[20] = biological target: T5, Trace amine-associated receptor 1 (Homo sapiens, UniProt Q96RJ0); experiment: Fluorescence-based cell-based high throughput dose response assay to identify antagonists of the human trace amine associated receptor 1 (TAAR1).; format: functional
T5 sequence (Q96RJ0 whole entry): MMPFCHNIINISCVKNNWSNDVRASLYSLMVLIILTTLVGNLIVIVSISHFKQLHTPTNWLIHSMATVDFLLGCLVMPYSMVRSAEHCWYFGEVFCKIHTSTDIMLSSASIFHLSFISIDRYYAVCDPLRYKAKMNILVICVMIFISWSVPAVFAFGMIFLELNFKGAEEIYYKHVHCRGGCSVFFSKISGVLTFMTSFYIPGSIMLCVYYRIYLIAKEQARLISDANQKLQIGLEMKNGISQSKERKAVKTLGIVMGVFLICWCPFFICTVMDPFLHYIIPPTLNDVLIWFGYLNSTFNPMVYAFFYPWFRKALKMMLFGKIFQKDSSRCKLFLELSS

[21] = Counterscreen for antagonists of the human trace amine associated receptor 1 (hTAAR1): Fluorescence-based cell-based high throughput dose response assay to identify nonselective Ga16 antagonists.; format: functional
[22] = biological target: T5, Trace amine-associated receptor 1; experiment: Counterscreen for antagonists of the human trace amine associated receptor 1 (hTAAR1): Fluorescence-based cell-based high throughput dose response assay to identify TAAR1 Agonists.; format: functional
[23] = biological target: Tyrosine-protein phosphatase non-receptor type 11 (Homo sapiens, UniProt Q06124); experiment: PTPN11 enzyme inhibitors – biochemical, selectivity assay for STEP inhibitor project, dose response (AID 602367); format: functional; conditions: read-out: IC50_Mean
Chain of Tyrosine-protein phosphatase non-receptor type 11 (Q06124 whole entry): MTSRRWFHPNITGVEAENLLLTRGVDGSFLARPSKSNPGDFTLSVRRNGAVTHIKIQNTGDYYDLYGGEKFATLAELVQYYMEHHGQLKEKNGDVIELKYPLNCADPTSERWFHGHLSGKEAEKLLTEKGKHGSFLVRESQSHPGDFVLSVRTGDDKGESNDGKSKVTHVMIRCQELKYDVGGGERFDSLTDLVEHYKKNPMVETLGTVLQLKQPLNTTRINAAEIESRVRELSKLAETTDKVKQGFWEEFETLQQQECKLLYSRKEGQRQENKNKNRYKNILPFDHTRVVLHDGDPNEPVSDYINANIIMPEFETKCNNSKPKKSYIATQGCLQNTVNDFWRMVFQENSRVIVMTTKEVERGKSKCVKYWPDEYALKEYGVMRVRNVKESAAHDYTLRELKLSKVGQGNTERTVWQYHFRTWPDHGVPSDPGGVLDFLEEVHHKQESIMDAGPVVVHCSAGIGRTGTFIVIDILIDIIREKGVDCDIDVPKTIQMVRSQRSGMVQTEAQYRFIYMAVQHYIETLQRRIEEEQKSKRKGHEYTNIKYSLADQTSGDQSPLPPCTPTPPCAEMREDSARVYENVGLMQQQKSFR

[24] = biological target: Tyrosine-protein phosphatase non-receptor type 5 (Homo sapiens, UniProt P54829); experiment: PTPN5 enzyme inhibition – biochemical, fluorescence intensity, uHTS hits, confirmation (AID 602372); format: functional; conditions: read-out: IC50_Mean
Chain of Tyrosine-protein phosphatase non-receptor type 5 (P54829 whole entry): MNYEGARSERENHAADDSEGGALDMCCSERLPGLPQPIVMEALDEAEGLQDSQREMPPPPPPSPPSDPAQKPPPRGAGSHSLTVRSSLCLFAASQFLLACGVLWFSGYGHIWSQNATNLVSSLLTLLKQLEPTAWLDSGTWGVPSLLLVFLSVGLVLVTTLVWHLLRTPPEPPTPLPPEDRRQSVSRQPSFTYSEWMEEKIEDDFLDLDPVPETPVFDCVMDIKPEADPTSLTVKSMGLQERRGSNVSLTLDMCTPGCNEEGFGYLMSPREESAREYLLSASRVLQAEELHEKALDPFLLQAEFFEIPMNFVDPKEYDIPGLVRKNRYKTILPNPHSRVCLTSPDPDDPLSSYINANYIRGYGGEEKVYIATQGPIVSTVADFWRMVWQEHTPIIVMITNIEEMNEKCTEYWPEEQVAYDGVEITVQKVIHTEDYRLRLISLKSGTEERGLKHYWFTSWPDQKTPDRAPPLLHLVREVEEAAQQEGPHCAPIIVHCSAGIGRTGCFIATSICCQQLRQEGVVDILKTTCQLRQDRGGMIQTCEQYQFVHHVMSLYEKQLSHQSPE

[25] = biological target: Dual specificity protein phosphatase 3 (Homo sapiens, UniProt P51452); experiment: VHR phosphatase inhibition, dose response, selectivity assay for STEP inhibitor project, biochemical (AID 602374); format: functional; conditions: read-out: IC50_Mean
Chain of Dual specificity protein phosphatase 3 (P51452 whole entry): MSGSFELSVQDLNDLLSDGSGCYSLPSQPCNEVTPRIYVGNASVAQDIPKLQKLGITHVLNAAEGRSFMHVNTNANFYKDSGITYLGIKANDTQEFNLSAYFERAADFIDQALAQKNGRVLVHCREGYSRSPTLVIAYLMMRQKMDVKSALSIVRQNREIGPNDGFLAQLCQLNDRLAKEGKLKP

cells [26] = format: functional, cell-based
[27] = biological target: T5, Trace amine-associated receptor 1; experiment: Fluorescence-based cell-based high throughput dose response assay to identify agonists of the human trace amine associated receptor 1 (TAAR1).; format: functional
[28] = biological target: T5, Trace amine-associated receptor 1; experiment: Counterscreen for agonists of the human trace amine associated receptor 1 (hTAAR1): Fluorescence-based cell-based high throughput dose response assay to identify hTAAR1 agonist that also desensitize TAAR1 receptor response.; format: functional
cells [29] = format: functional, cell-based; remark: listed apart in the source

T1 sequence (P07550 whole entry): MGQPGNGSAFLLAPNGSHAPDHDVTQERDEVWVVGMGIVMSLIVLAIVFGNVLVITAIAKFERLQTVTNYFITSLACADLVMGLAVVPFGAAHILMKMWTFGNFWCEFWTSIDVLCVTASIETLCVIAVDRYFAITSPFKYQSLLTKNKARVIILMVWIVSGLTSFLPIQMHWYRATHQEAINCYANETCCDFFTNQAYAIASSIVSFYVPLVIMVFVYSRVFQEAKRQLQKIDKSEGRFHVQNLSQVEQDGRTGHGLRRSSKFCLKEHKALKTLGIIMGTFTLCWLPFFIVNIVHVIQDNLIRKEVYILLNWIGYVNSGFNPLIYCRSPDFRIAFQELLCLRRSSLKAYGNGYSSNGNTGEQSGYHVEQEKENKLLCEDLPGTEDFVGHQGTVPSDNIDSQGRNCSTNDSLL

In the case of `CC(=O)Nc1ccc(S(=O)(=O)N2CCC(Oc3ccc(-n4cnnn4)cc3)CC2)cc1`, the EC50 [1] is reported as 0.126 µM (active) and the EC50 [2] is reported as 0.0366 µM (active).
With `CC(=O)Nc1ccc(N2C(=O)c3cccc4c(O)ccc(c34)C2=O)cc1` the IC50 (Beta-lactamase [3]) was 13.7 µM (inactive) and the IC50 (Beta-lactamase [4]) was 7 µM (active).
In the case of `O=C(COC(=O)c1ccc([N+](=O)[O-])o1)NCc1ccc2c(c1)OCO2`, the IC50 [5] is reported as 5.11 µM (active) and the IC50 [6] is reported as 11.1 µM (active).
In the case of `COc1ccc(S(=O)(=O)Nc2cccc3ccc(O)cc23)cc1`, the AC50 [7] is reported as > 52 µM (inactive).
With `C/C(=N/NC(=O)c1cc(O)c(O)c(O)c1)c1ccc([N+](=O)[O-])cc1` the EC50 [8] was > 160 µM (inactive), the EC50 [9] was > 38 µM (not active) and the IC50 (Large T antigen) was 8.68 µM (active). For the same compound, the IC50 (Albumin) was > 94.1 µM (inactive) and the AC50 (Caspase-6) was 27.5 µM (active).
For `COC(=O)[C@@H]1COC(c2ccc(F)cc2F)=N1`, the EC50 [10] was > 100 µM (inactive).
For `N#C[C@H]1[C@@H](c2ccccc2)[C@@H](CO)N1C(=O)Nc1cccc(F)c1`, the AC50 [11] was 1.76 µM (active).
In the case of `C[C@H]1CNC(=O)c2c(C(=O)N3CCN(C(=O)OC(C)(C)C)CC3)ncn21`, the AC50 [12] is reported as 0.805 µM (active), the AC50 [13] is reported as 47.9 µM (active) and the AC50 [14] is reported as 3.02 µM (active). The AC50 [15] was 2.18 µM (active) and the AC50 [16] was 4.38 µM (active).
`COc1ccc(S(=O)(=O)N(C)C[C@H]2Oc3ncc(/C=C/c4ccccc4)cc3C(=O)N([C@H](C)CO)C[C@@H]2C)cc1` showed an AbsAC35 [17] of 45.64 µM.
In the case of `C[C@@H]1CCCCO[C@@H](CN(C)C(=O)Nc2ccc(F)cc2)[C@H](C)CN([C@@H](C)CO)C(=O)c2cc(NC(=O)Nc3ccc(C(F)(F)F)cc3)ccc2O1`, the AC50 (Paired box protein Pax-8) is reported as 4.11 µM (active) and the AC50 [18] is reported as 67.7 µM (active).
For `Cc1cc(/C=N\NC(=O)CC(=O)NC2CCCCC2)c(C)n1-c1ccc(Cl)c(Cl)c1`, the EC50 [19] was > 29.9 µM (inactive), the IC50 [20] was 0.915 µM (active) and the IC50 [21] was 15.3 µM (inactive). For the same compound, the EC50 [22] was 7.54 µM (active).
In the case of `NS(=O)(=O)c1ccc(N/C(S)=N\CCc2ccccc2)cc1`, the IC50 [23] is reported as 5.84 µM (active), the IC50 [24] is reported as > 80 µM (inactive) and the IC50 [25] is reported as 3.17 µM (active). For the same compound, the IC50 (cells [26]) was > 29.9 µM (inactive), the EC50 [27] was 2.56 µM (active) and the IC50 [28] was 7.06 µM (active). The EC50 (cells [29]) was > 29.9 µM (inactive).

— ChEMBL document CHEMBL1201862, “PubChem BioAssay data set” (2004)
